According to US20090092550A1, “PORPHYRIN LINKED METRONIDAZOLE AGAINST GUM DISEASE: PORPHYROMONAS GINGIVALIS” (The University of Sydney, priority 2004, published 2009):
pKd: −log10 of the molar value. In brackets after ≈: the same amount, converted by molar mass. Where two headings read alike, the source gives them in different places.

Key:
F. nucleatum = assay: Growth inhibition assay on an unrelated organism; assay type: cell-based, Fusobacterium nucleatum; details: 20 μM, over 72 h (FIG. 7C)
Protocol: As it is useful to test the mono-adducts 20 and 21 on non-related bacteria as well, as there is a large and complex community of bacteria present in the gingival crevice causing periodontal diseases, the mono-adducts 20 and 21 were also tested on the unrelated organism F. nucleatum.
(§1) Bovine hemoglobin (Hb), Hb-agarose beads, hemin (Hm) and Hm-agarose beads were supplied by Sigma-Aldrich Company. The translated product of a synthetic HA2 gene, derived from the sequence of RgpA, was expressed in E. coli with a C-terminal polyhistidine tag (International Patent Application No. WO 2002061091) and is referred to as rHA2. rHA2 was functionally purified by Hb-agarose affinity chromatography. Anti-gingipain monoclonal antibody (mAb) 5A1 was prepared in mice. Secondary goat anti-mouse antibody conjugated with alkaline phosphatase (AP) was supplied by Dako Corporation. 4-nitrophenylphosphate (p-NPP) was supplied by Boehringer. P. gingivalis ATCC 33277 cells was used in all growth assays and cultures were anaerobically grown at 37° C. in an atmosphere containing CO2 (5%), H2 (10%) and N2 (85%). P. gingivalis and P. melaminogenica cells were grown in Center for Disease Control (CDC) medium and F. nucleatum cells were grown in Brain Heart Infusion (BHI) medium.

[1] = system: P. gingivalis ATCC 33277 cells; assay: Growth inhibition assay, turbidity (optical density) over 72 h; assay type: cell-based, Porphyromonas gingivalis
Protocol: The mono-adducts 20 and 21 and metronidazole were tested on the targeted organism, P. gingivalis with the standard controls to compare the potency of the mono-adducts 20 and 21 compared to metronidazole towards the targeted organism. In a 96-well polystyrene plate divided into four sections, a series of dilutions of the mixture of the mono-adducts 20 and 21, metronidazole, DPIX 5 and DMSO were made up. These were transferred into test-tubes in quadruplicate and the P. gingivalis cells were added in triplicate leaving one test-tube as a blank control free of P. gingivalis cells. The growth of the P. gingivalis cells were monitored over 3 days (72 h) and growth was noted by the turbidity of the medium and recorded as the optical density.
The growth inhibition assays show differences in growth responses to metronidazole and the mixture of the mono-adducts 20 and 21.
as §1
Cultivation and biological testing were carried out on P. gingivalis ATCC 33277 cells and the cultures were anaerobically grown at 37° C. in an atmosphere containing CO2 (5%), H2 (10%) and N2 (85%). The cultures were inoculated with heme, menadione and either DMSO, DPIX 5, metronidazole, DPIX 5+ metronidazole or adduct 20 and 21. In a 96-well polystyrene plate divided into four sections, a series of dilutions of the mixture of the mono-adducts 20 and 21, metronidazole, DPIX 5 and DMSO were made up. These were transferred into test-tubes in quadruplicate and the P. gingivalis cells were added in triplicate leaving one test-tube as a blank control free of P. gingivalis cells. The growth of the P. gingivalis cells were monitored over 3 days (72 h) and growth was noted by the turbidity of the medium and recorded as the optical density.

[2] = system: P. gingivalis ATCC 33277 cells; details: literature (Poulet et al. 1999; Mitchell 1984); cited from earlier work
P. melaminogenica = assay: Growth inhibition assay on a related organism; assay type: cell-based, Prevotella melaminogenica; details: 20 μM, over 72 h (FIG. 7B)
Protocol: as §1

[3] = target: HA2 domain (rHA2, derived from the sequence of RgpA); assay: ELISA binding of plate-coated porphyrin to rHA2; parameters: species or system Porphyromonas gingivalis; details: FIG. 5, mean of three similar KD50s, read-out: KD50 to HA2
Protocol: The KD50 of the mono-adducts 20 and 21 to HA2 was established using Enzyme-Linked ImmunoSorbent Assay (ELISA), whereby a 96-well polystyrene plate was coated with either the mono-adducts 20 and 21 or hemin in an alkaline coating buffer at pH 9.0. The plates were then washed and blocked for 30 min with a phosphate buffered saline solution containing Tween-20, a […] detergent to prevent any non-specific binding. Dilutions of HA2 in a slightly acidic acetate buffer at pH 5.5 were then titrated down the rows of the 96-well plate and the plate was incubated in an IR Sensor CO2 incubator at 37° C. for 1.5 h to allow binding of either the mono-adducts 20 and 21 or hemin to HA2. […] A secondary goat anti-mouse antibody conjugated with alkaline phosphatase (AP) was then added to detect the primary antibody and the binding of either the mono-adducts 20 and 21 or hemin to HA2 was recorded as optical density on a Bio-rad Microplate reader as the amount of dephosphorylation of the substrate para-nitrophenolphosphate to para-nitrophenol catalyzed by AP. […]
The mixture of mono-metronidazole-substituted adducts 20 and 21 and heme (both at 5 μg/ml) were coated on the plastic well surfaces of a 96-well plate in coating buffer at pH 9.0. […] Apparent dissociation constants were calculated from best-fit KD50 binding curves.

[4] = target: HA2 domain (rHA2, derived from the sequence of RgpA); details: known value for the standard; read-out: binding dissociation constant to HA2; cited from earlier work

Compound	growth inhibition of F. nucleatum (F. nucleatum)	growth suppression of P. gingivalis ([1]; 0.5 μM, over 72 h (FIG. 6E))	time after which activity is lost and P. gingivalis growth recovers ([1]; 1 μM (FIG. 6D))	growth inhibition of P. gingivalis ([1]; 4 μM, over 72 h (FIG. 6B))	growth inhibition of P. gingivalis ([1]; 20 μM, over 72 h (FIG. 6A, FIG. 7A))	growth suppression of P. gingivalis ([1]; 2 KM, over 72 h (FIG. 6C))	MIC ([1]; Porphyromonas gingivalis, ATCC33277, P. gingivalis, approximate, from FIG. 6, read-out: Minimum Inhibitory Concentration (MIC))	activity against P. gingivalis [2]	growth inhibition of P. melaminogenica (P. melaminogenica)	pKd [3]	pKd [4]
Cc1ncc([N+](=O)[O-])n1CCO [metronidazole]	complete inhibition	no effect of growth suppression	approximately 50 h	complete inhibition	complete inhibition of growth	completely supresses growth	1 to 2 µM (≈ 0.171 to 0.342 µg/mL)	excellent activity	complete suppression of growth	–	–
hemin	–	–	–	–	–	–	–	–	–	7.82	~7.82
